In brackets after ≈: the same amount, converted by molar mass. Like-named read-outs stand apart in the source and are kept apart here. Starred links: 1 amine or outer side, 2 acyl side, 3 side chain; linkers in the order of their positions; H or OH if unused. Positions of bridges follow the written chain, without caps; N, C: chain ends. Residues, ends and D or L forms follow the SMILES beside them. *: point of attachment. C20 diacid = O=C(O)CCCCCCCCCCCCCCCCCCC(=O)*; γGlu = O=C(O)[C@H](CCC(=O)[*:2])N[*:1]
What was measured:
[1] = target: T1, human calcitonin receptor (Homo sapiens, UniProt P30988); assay: Assay (II)a functional CRE-luciferase assay, human calcitonin receptor; format: cell-based; settings: Table 7; human calcitonin (CTa) receptor
T1 construct: expressed in transfected cells; host or cells: BHK570
T1 sequence (P30988 25-474): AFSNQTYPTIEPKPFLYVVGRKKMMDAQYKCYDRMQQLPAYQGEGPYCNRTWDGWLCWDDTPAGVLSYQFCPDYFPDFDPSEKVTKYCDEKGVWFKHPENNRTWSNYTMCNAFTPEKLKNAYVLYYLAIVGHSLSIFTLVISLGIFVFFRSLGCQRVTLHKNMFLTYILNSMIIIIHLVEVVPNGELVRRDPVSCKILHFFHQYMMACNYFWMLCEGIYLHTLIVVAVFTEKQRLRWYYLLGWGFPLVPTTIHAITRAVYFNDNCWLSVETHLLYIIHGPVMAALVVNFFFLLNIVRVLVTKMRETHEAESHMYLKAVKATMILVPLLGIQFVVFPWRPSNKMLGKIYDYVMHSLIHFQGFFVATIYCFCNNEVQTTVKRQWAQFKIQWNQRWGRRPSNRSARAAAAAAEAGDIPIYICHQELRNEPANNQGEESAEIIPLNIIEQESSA
Source text: (§1) 1. Luciferase Assay Outline
(§2) Activation of calcitonin and amylin (coexpression of calcitonin receptor and receptor activity modifying proteins (RAMP)) receptors lead to increased intracellular concentrations of cAMP. Consequently, transcription is activated by promoters containing multiple copies of the cAMP response element (CRE). It is thus possible to measure amylin activity by the use of a CRE luciferase reporter gene introduced into BHK cells also expressing calcitonin or amylin receptors.
(§3) A BHK570 cell line was stably transfected with the human calcitonin receptor and a CRE-responsive luciferase reporter gene. The cell line was further transfected with RAMP-3, using standard methods. This turns the calcitonin receptor into an amylin 3(a) receptor. Methotrexate, Neomycin, and Hygromycin are selection markers for luciferase, the calcitonin receptor, and RAMP-3, respectively.
(§4) To perform activity assays, BHK calcitonin (a) receptor- or amylin 3(a)-receptor/CRE-luc cells were seeded in white 96 well culture plates at a density of about 20.000 cells/well. […] Further, 50 μl/well of standard or sample in assay buffer were added. After 3 hours incubation at 37° C. and 5% CO2, the assay medium with standard or sample were removed and replaced by 100 μl/well PBS. Further, 100 μl/well LucLite™ was added. The plates were sealed and incubated at room temperature for 30 minutes. Finally, luminescence was measured on a TopCounter (Packard) in SPC (single photon counting) mode.

[2] = Assay (IV) determination of solubility; format: physicochemical
In short: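 Polypeptide in water (~500 nmol/ml stock) was mixed 1:1 with 100 mM buffers from pH 3.0 to 8.0 (glycylglycine pH 3.0–5.0; bistrispropane pH 6.0–8.0). After 18 hours at room temperature, samples were centrifuged and the polypeptide remaining in solution was quantified by HPLC.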

[3] = target: T2, human amylin receptor (amylin 3(a) receptor: human calcitonin receptor + RAMP-3) (Homo sapiens, UniProt O60896+P30988); assay: Assay (II)a functional CRE-luciferase assay, human amylin receptor; format: cell-based; settings: BHK amylin 3(a)-receptor/CRE-luc cells
T2 construct: expressed in transfected cells; host or cells: BHK570
T2 sequence (P30988 25-474): T1 sequence (P30988 25-474)
T2 sequence (O60896 24-148 partner): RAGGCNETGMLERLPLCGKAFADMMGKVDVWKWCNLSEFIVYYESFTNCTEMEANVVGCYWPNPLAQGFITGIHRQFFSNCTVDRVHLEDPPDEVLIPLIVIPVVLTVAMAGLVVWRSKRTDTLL
Source text: as §1, §2, §3, §4

[4] = bistrispropane buffer, pH 6, pH 6.0, read-out: Solubility pH 6.0
[5] = bistrispropane buffer, pH 6.5, pH 6.5, read-out: Solubility pH 6.5
[6] = bistrispropane buffer, pH 7, pH 7.0, 18 hours at room temperature, Table 3, read-out: Solubility pH 7.0
[7] = bistrispropane buffer, pH 7, pH 7.0, read-out: Solubility pH 7.0
[8] = bistrispropane buffer, pH 7.5, pH 7.5, read-out: Solubility pH 7.5
[9] = bistrispropane buffer, pH 8, pH 8.0, read-out: Solubility pH 8.0
[10] = glycylglycine buffer, pH 3, pH 3.0, read-out: Solubility pH 3.0
[11] = glycylglycine buffer, pH 4, pH 4.0, read-out: Solubility pH 4.0
[12] = glycylglycine buffer, pH 5, pH 5.0, read-out: Solubility pH 5.0
[13] = glycylglycine buffer, pH 4, pH 4.0, 18 hours at room temperature, Table 2, read-out: Solubility pH 4.0

| EC50 [1] [pM] | solubility at 18 h [2, 4] [µM] | solubility at 18 h [2, 5] [µM] | solubility at 18 h [2, 6] [µM] | solubility at 18 h [2, 7] [µM] | solubility at 18 h [2, 8] [µM] | solubility at 18 h [2, 9] [µM] | solubility at 18 h [2, 10] [µM] | solubility at 18 h [2, 11] [µM] | solubility at 18 h [2, 12] [µM] | EC50 ([3]; Table 3) [pM] | solubility at 18 h [2, 13] [µM] | EC50 ([3]; Table 2) [pM] | SMILES |
| --- | --- | --- | --- | --- | --- | --- | --- | --- | --- | --- | --- | --- | --- |
| 198 | 34 (≈ 150 µg/mL) | 12 (≈ 52.8 µg/mL) | 104 (≈ 458 µg/mL) | 104 (≈ 458 µg/mL) | 122 (≈ 537 µg/mL) | 129 (≈ 568 µg/mL) | 179 (≈ 788 µg/mL) | 80 (≈ 352 µg/mL) | 1 (≈ 4.4 µg/mL) | 313 | – | – | CC[C@H](C)[C@H](NC(=O)[C@@H]1CCCN1C(=O)CNC(=O)[C@H](Cc1ccccc1)NC(=O)[C@H](CO)NC(=O)[C@H](CO)NC(=O)[C@H](CO)NC(=O)[C@H](CO)NC(=O)[C@H](CCCNC(=N)N)NC(=O)[C@H](Cc1c[nH]cn1)NC(=O)[C@H](CC(C)C)NC(=O)[C@H](Cc1ccccc1)NC(=O)[C@H](CCC(=O)O)NC(=O)[C@H](C)NC(=O)[C@H](CC(C)C)NC(=O)[C@H](CCCNC(=N)N)NC(=O)[C@H](CCC(N)=O)NC(=O)[C@@H](NC(=O)[C@H](C)NC(=O)[C@@H]1CSSC[C@H](NC(=O)[C@H](Cc2c[nH]cn2)NC(=O)CC[C@H](NC(=O)CCCCCCCCCCCCCCCCCCC(=O)O)C(=O)O)C(=O)NCC(=O)N[C@@H]([C@@H](C)O)C(=O)N[C@@H](C)C(=O)N[C@@H]([C@@H](C)O)C(=O)N1)[C@@H](C)O)C(=O)N[C@@H](CC(C)C)C(=O)N1CCC[C@H]1C(=O)N1CCC[C@H]1C(=O)N[C@H](C(=O)N[C@@H](CCC(=O)O)C(=O)N[C@H](C(=O)NCC(=O)N[C@@H](CO)C(=O)N[C@@H](CCC(=O)O)C(=O)N[C@H](C(=O)N[C@@H](Cc1ccc(O)cc1)C(N)=O)[C@@H](C)O)C(C)C)[C@@H](C)O [Example 16, N-alpha-[(S)-4-Carboxy-4-(19-carboxynonadecanoylamino)butyryl]-[His1,Gly3,Glu14,His17,Arg18,Ser21,Ser22,Glu31,Glu35]-pramlintide] ({C20 diacid-γGlu}-HCGTATCATQRLAEFLHRSSSSFGPILPPTEVGSETY-NH2; disulfide 2-7 (inferred)) |
| 259 | > 200 | > 200 | > 200 | > 200 | > 200 | > 200 | > 200 | > 200 | > 200 | – | > 200 | 179 | CC[C@H](C)[C@H](NC(=O)[C@@H]1CCCN1C(=O)CNC(=O)[C@H](Cc1ccccc1)NC(=O)[C@H](CC(N)=O)NC(=O)[C@H](CC(N)=O)NC(=O)[C@H](CO)NC(=O)[C@H](CO)NC(=O)[C@H](Cc1cnc[nH]1)NC(=O)[C@H](Cc1cnc[nH]1)NC(=O)[C@H](CC(C)C)NC(=O)[C@H](Cc1ccccc1)NC(=O)[C@H](CCC(=O)O)NC(=O)[C@H](C)NC(=O)[C@H](CC(C)C)NC(=O)[C@H](CCCNC(=N)N)NC(=O)[C@H](CCC(N)=O)NC(=O)[C@@H](NC(=O)[C@H](C)NC(=O)[C@@H]1CSSC[C@H](NC(=O)CC[C@H](NC(=O)CCCCCCCCCCCCCCCCCCC(=O)O)C(=O)O)C(=O)N[C@@H](CC(N)=O)C(=O)N[C@@H]([C@@H](C)O)C(=O)N[C@@H](C)C(=O)N[C@@H]([C@@H](C)O)C(=O)N1)[C@@H](C)O)C(=O)N[C@@H](CC(C)C)C(=O)N1CCC[C@H]1C(=O)N1CCC[C@H]1C(=O)N[C@H](C(=O)N[C@@H](CC(N)=O)C(=O)N[C@H](C(=O)NCC(=O)N[C@@H](CO)C(=O)N[C@@H](CC(N)=O)C(=O)N[C@H](C(=O)N[C@@H](Cc1ccc(O)cc1)C(N)=O)[C@@H](C)O)C(C)C)[C@@H](C)O [Example 28, N-alpha-[(S)-4-Carboxy-4-(19-carboxynonadecanoylamino)butyryl]-[des1,Glu14,His17]-pramlintide] ({C20 diacid-γGlu}-CNTATCATQRLAEFLHHSSNNFGPILPPTNVGSNTY-NH2; disulfide 1-6) |
| 657 | > 200 | > 200 | > 200 | > 200 | > 200 | > 200 | > 200 | > 200 | 107 (≈ 477 µg/mL) | – | > 200 | 377 | CC[C@H](C)[C@H](NC(=O)[C@@H]1CCCN1C(=O)CNC(=O)[C@H](Cc1ccccc1)NC(=O)[C@H](CC(N)=O)NC(=O)[C@H](CC(N)=O)NC(=O)[C@H](CO)NC(=O)[C@H](CO)NC(=O)[C@H](Cc1cnc[nH]1)NC(=O)[C@H](Cc1cnc[nH]1)NC(=O)[C@H](CC(C)C)NC(=O)[C@H](Cc1ccccc1)NC(=O)[C@H](CCC(=O)O)NC(=O)[C@H](C)NC(=O)[C@H](CC(C)C)NC(=O)[C@H](CCCNC(=N)N)NC(=O)[C@H](CCC(N)=O)NC(=O)[C@@H](NC(=O)[C@H](C)NC(=O)[C@@H]1CSSC[C@H](NC(=O)[C@H](CCC(=O)O)NC(=O)CC[C@H](NC(=O)CCCCCCCCCCCCCCCCCCC(=O)O)C(=O)O)C(=O)N[C@@H](CC(N)=O)C(=O)N[C@@H]([C@@H](C)O)C(=O)N[C@@H](C)C(=O)N[C@@H]([C@@H](C)O)C(=O)N1)[C@@H](C)O)C(=O)N[C@@H](CC(C)C)C(=O)N1CCC[C@H]1C(=O)N1CCC[C@H]1C(=O)N[C@H](C(=O)N[C@@H](CC(N)=O)C(=O)N[C@H](C(=O)NCC(=O)N[C@@H](CO)C(=O)N[C@@H](CC(N)=O)C(=O)N[C@H](C(=O)N[C@@H](Cc1ccc(O)cc1)C(N)=O)[C@@H](C)O)C(C)C)[C@@H](C)O [Example 29, N-alpha-[(S)-4-Carboxy-4-(19-carboxynonadecanoylamino)butyryl]-[Glu1,Glu14,His17]-pramlintide] ({C20 diacid-γGlu}-ECNTATCATQRLAEFLHHSSNNFGPILPPTNVGSNTY-NH2; disulfide 2-7) |

— US8722849B2, “Polypeptides” (Novo Nordisk A/S, priority 2011, dated 2014)
